IC50 data for two molecules are collected here from US20030096958A1, “Human NHE2” (Pfizer Inc., priority 2001, published 2003).

Where two headings read alike, the source gives them in different places.

The term IC50 denotes the concentration at which inhibition is half-maximal.

The target of one test is T1, human NHE2-SF (Homo sapiens, UniProt Q9UBY0).
T1 construct: NotI/BgIII fragments including each of the entire coding regions were subcloned into pcDNA3.1(−) vectors; expressed in transfected cells; two lines tested
T1 sequence (Q9UBY0 116-812): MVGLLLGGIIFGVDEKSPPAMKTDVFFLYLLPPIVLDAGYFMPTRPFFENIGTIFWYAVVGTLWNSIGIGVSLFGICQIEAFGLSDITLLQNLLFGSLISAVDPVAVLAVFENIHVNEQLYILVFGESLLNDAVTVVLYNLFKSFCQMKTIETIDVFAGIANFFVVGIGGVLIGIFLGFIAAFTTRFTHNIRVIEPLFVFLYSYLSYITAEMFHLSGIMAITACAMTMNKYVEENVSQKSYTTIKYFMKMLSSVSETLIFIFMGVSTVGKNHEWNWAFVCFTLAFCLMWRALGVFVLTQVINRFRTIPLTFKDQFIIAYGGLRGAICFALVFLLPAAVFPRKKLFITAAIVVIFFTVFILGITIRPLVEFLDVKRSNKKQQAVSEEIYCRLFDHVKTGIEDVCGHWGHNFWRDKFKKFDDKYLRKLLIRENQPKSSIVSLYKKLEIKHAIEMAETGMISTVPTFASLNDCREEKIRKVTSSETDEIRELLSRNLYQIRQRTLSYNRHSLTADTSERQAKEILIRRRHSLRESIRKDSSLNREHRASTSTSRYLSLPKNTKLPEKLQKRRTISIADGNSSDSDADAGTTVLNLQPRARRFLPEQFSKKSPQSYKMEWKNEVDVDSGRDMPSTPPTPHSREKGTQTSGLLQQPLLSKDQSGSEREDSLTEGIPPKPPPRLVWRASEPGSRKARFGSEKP
As to the kind of experiment: FLIPR assay of Na+/H+ exchange (BCECF fluorescence recovery) in human NHE2-SF transfected PS120 cells. It counts as cell-based. The procedure: (§1) Human NHE2-LF and human NHE2-SF transfected PS120 cells were grown to confluence in collagen coated Fluorescent Laser Imaging Plate Reader (FLIPR) plates. To remove growth medium, the cells were washed with a 10 mM Hepes buffer, pH 7.4. A pH sensitive fluorescent dye, BCECF, AM (5 μM) (Molecular Probes, Eugene, Oreg.), was added to each well and the plates were incubated in a 37° C. humidified 5% CO2 incubator for approximately 20 minutes.
(§2) The cells were then washed with 30 mM NH4Cl buffer, pH 7.5, to remove excess dye. Plates were incubated with this buffer for approximately 45 minutes in a 37° C. humidified incubator.
(§3) 5-(N,N-Hexamethylene)-amiloride ((hexa)-amiloride), amiloride, or a vehicle, was then added to each well and allowed to incubate for a minimum of 5 minutes prior to the initiation of intracellular acidification. The NH4Cl buffer was removed and the plates were placed on the FLIPR to establish a baseline fluorescence. A 10 mM hepes buffer, pH 7.4, containing the appropriate concentration of test compound or vehicle was added to each well of the plate. (This process initiates intracellular acidification and the quenching of BCECF-related fluorescence. The resultant activation of the Na^+/H^+ exchanger and the decrease in intracellular H^+ ions produces in gradual increase in dye fluorescence towards baseline.) Changes in fluorescence were measured by the FLIPR over a period of 7 min. Activity of the exchanger was calculated based on the percentage of fluorescence recovery as compared to control in the presence of varying concentrations of compounds (Table 2).

In the next test the target is T2, human NHE2-LF (Homo sapiens, UniProt Q9UBY0).
T2 construct: expressed in transfected cells
T2 sequence (Q9UBY0 1-812): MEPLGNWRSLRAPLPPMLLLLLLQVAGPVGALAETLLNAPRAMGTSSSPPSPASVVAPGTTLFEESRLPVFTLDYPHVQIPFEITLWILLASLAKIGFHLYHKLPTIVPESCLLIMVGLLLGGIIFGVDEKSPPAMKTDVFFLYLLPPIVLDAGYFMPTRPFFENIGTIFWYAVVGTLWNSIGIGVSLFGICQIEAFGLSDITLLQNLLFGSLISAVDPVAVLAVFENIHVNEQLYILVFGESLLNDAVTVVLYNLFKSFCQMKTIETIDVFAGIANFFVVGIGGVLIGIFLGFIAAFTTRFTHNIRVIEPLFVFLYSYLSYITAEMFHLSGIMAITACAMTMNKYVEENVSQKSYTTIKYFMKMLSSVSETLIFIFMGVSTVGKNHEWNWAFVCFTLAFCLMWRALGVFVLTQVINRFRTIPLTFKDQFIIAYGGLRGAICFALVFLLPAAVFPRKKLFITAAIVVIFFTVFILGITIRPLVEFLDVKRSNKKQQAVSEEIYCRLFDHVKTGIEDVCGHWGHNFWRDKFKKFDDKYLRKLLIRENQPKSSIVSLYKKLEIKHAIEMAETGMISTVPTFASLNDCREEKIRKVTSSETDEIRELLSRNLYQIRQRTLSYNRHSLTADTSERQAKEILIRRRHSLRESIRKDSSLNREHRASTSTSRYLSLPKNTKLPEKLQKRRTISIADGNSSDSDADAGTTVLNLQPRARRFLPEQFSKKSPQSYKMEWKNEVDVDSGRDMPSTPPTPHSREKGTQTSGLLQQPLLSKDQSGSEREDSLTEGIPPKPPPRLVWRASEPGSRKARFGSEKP
As to the kind of experiment: FLIPR assay of Na+/H+ exchange (BCECF fluorescence recovery) in human NHE2-LF transfected PS120 cells. Type of test: cell-based. The settings on record: read-out: IC50 Values Determined By FLIPR, NHE2-LF. The procedure: as §1, §2
as §3, with “A 10 mM hepes buffer, pH 7.4, containing the appropriate concentration of test compound or vehicle was added to each well of the plate.” left out, “Activity of the exchanger was calculated based on the percentage of fluorescence recovery as compared to control in the presence of varying concentrations of compounds (Table 2).” left out

Setting [1] is: line #2, read-out: IC50 Values Determined By FLIPR, NHE2-SF line #2.
Setting [2] is: line #, read-out: IC50 Values Determined By FLIPR, NHE2-SF line #.

As for `NC(N)=NC(=O)c1nc(Cl)c(N2CCCCCC2)nc1N` [(hexa)-Amiloride, 5-(N,N-Hexamethylene)-amiloride], the results for the IC50 at human NHE2-SF (setting [1]), on human NHE2-SF (setting [2]) and on human NHE2-LF were 45 nM, 23 nM and 7480 nM, respectively.

As to `N=C(N)NC(=O)c1nc(Cl)c(N)nc1N` [Amiloride, amiloride], the values for the IC50 on human NHE2-SF (setting [1]), on human NHE2-SF (setting [2]) and at human NHE2-LF were 1370 nM, 1700 nM and 27000 nM, respectively.
